ChEMBL document CHEMBL1141428, “Polyisoprenylated benzoylphloroglucinol derivatives from Hypericum sampsonii” (2007)
In brackets after ≈: the same amount, converted by molar mass.

System: Staphylococcus aureus
Assay: Antibacterial activity against multidrug-resistant Staphylococcus aureus 1199B overexpressing NorA after 18 hrs
Assay type: functional

Row | Structure (SMILES) | MIC
1 | CC(C)=CC[C@H]1C[C@]2(CC=C(C)C)C(=O)C(C(=O)c3ccccc3)=C(O)[C@](CC=C(C)C)(C2=O)C1(C)C | 7.3 µM (≈ 3.67 µg/mL)
2 | CCn1cc(C(=O)O)c(=O)c2cc(F)c(N3CCNCC3)cc21 [NORFLOXACIN] | 100 µM (≈ 31.9 µg/mL)
